Reference: patent US20240156822A1, “Methods For Treatment of Vitiligo” (Pfizer Inc., priority 2022, published 2024)

Tested on: vitiligo
Experiment: Clinical study of treatment of vitiligo: central read facial-VASI (primary efficacy endpoint)
Format: in vivo, human
Details: for Placebo-adjusted LS mean CFB (SE); % CFB in Central F-VASI at Week 24: oral once daily
Experimental: Subjects take the medication set forth herein orally once daily, and typically swallow the tablets whole with approximately one cup of ambient temperature water, without any manipulation or chewing. Dosing regimes include induction dosing of 100 or 200 mg and maintenance dosing of 50 mg, or a 24-week Treatment Period in which participants were treated with ritlecitinib 50 mg, 30 mg, or 10 mg. The induction period is an initial period of treatment of 4 weeks in the initial clinical trial. The maintenance period is 20 weeks Tablets may be taken with or without food. Subject response is evaluated at regular intervals after administration. The Vitiligo Area Scoring Index (VASI) is a validated quantitative scale, initially developed to measure the response of vitiligo to nbUVB treatment, but has since been used to evaluate various therapies for vitiligo. Clinical evaluations of vitiligo in this study include VASI, central read and site assessment of facial-VASI, static Investigator Global Assessment (sIGA), Body Surface Area (BSA) involvement, Vitiligo Extent Score (VES), and dermoscopy. Self-Assessment VES (SA-VES), Vitiligo Specific Quality of Life (VitiQoL), Dermatology Life Quality Index (DLQL), Hospital Anxiety and Depression Scale (HADS), Patient Global Impression of Change Vitiligo (PGIC-V), EQ-5D-5L, Healthcare Resource Utilization (HCRU) and Vitiligo Noticeability Scale (VNS). (b) Facial Vitiligo Area Scoring Index (Facial-VASI)—Central Read The central read facial-VASI are assessed based on the facial photographs taken at the site by a central reader. Clinical Trial Imaging Endpoint Process Standards—Guidance for Industry (April 2018). The central read facial-VASI is calculated using a formula that includes contribution of affected facial surface areas showing all six (6) different depigmentation rates (0.1, 0.25, 0.5, 0.75, 0.9 and 1) with a modified method described by Hamzavi et al. Hamzavi, I., […] The calculation of % affected total body surface area (BSA) is shown below: • Affected Facial Surface Area×4=% Affected Total Body Surface Area. Face is defined as the area from the hairline on top of the forehead to the jawline at the bottom of the cheeks. Facial-VASI (central read) will range from 0.000 to 4.000 by defining the affected Facial Surface Area (expressed as the value between 0.0 to 1.0) being 4% of total Body Surface Area. For example: 25% affected Facial Surface Area (0.25) represents 1% total body surface area (0.25×4). 15% affected Facial Surface Area (0.15) represents 0.6% total body surface area (0.15×4). The extent of depigmentation is expressed by the following percentages: 0, 10%, 25%, 50%, 75%, 90%, or 100%. At 100% depigmentation, no pigment is present; at 90%, specks of pigment are present; at 75%, the depigmented exceeded the pigmented area; at 50%, the depigmented and pigmented areas are equal; at 25%, the pigmented area exceeded the depigmented area; and at 10%, only specks of depigmentation are present. Scalp, neck, eyebrows, eyelashes, and vermilion are excluded from this calculation, although total VASI assessment includes all of these regions.

SMILES: C=CC(=O)N1C[C@H](Nc2ncnc3[nH]ccc23)CC[C@@H]1C [Ritlecitinib, 1-[(2S,5R)-2-methyl-5-(7H-pyrrolo[2,3-d]pyrimidin-4-ylamino)-1-piperidinyl]-2-propen-1-one]
- Efficacy criterion for the primary endpoint (% CFB in Central F-VASI at Week 24) (initial clinical studies): met the efficacy criterion for the primary endpoint
- Placebo-adjusted LS mean CFB (SE); % CFB in Central F-VASI at Week 24 (treatment group 10 mg, 24-week treatment period): −4.13%
- Placebo-adjusted LS mean CFB (SE); % CFB in Central F-VASI at Week 24 (treatment group 30 mg, 24-week treatment period): −16.93%
- Placebo-adjusted LS mean CFB (SE); % CFB in Central F-VASI at Week 24 (treatment group 50 mg, 24-week treatment period): −22.05%
- Placebo-adjusted LS mean CFB (SE); % CFB in Central F-VASI at Week 24 (treatment group 100/50 mg (induction 100 mg 4 weeks, maintenance 50 mg 20 weeks)): −22.99%
- Placebo-adjusted LS mean CFB (SE); % CFB in Central F-VASI at Week 24 (treatment group 200/50 mg (induction 200 mg 4 weeks, maintenance 50 mg 20 weeks)): −23.62%
